Source: patent US7989478B2, “Cinnamoyl compound and use of the same” (Sumitomo Chemical Company, Limited, priority 2003, dated 2011)

Assays:
[1] = test system: mRNA of Type I collagen gene in renal glomerulus; experiment: mRNA of Type I collagen gene in renal glomerulus of anti-Thy-1 antibody-administered rats (improvement of chronic renal failure); format: in vivo, rat; settings: for ability to improve chronic renal failure: anti-Thy-1 antibody rats; for mRNA of collagen gene: Type I collagen amount/GAPDH amount, renal cortex, anti-Thy-1 antibody +
Experimental: IgG was purified from an ascites-lyophilized powder (CEDARLANE, lot No. 05122) containing an anti-rat CD90 (Thy1.1) monoclonal antibody using MAbTrap kit (Amersham Biosciences, catalogue No. 17-1128-01).
6 ml of a binding buffer was added to 3 ml of ascites to sufficiently recover it, and this was passed through a 0.22 μm filter. The resulting solution was applied to a pre-bufferized column, and the column was then washed with 10 ml of a binding buffer. Thereafter, the column was eluted with 5 ml of an elution buffer. From washing, each 1 ml was fractionated, and the protein concentration of each fraction was measured using bovine serum albumin as a standard. A single peak was confirmed from an elution pattern, and an IgG fraction was dialyzed against a physiological saline overnight at 4° C. The protein concentration of the resulting anti-Thy-1 antibody (IgG) was calculated.
The present compounds represented by the compound numbers (28a) (hereinafter, referred to as the present compound (28a)), the present compound represented by a compound number (30a) (hereinafter, referred to as the present compound (30a)), the present compound represented by a compound number (33a) (hereinafter, referred to as the present compound (33a)), the present compound represented by a compound number (10e) (hereinafter, referred to as the present compound (10e)), the present compound represented by a compound number (18e) (hereinafter referred to as the present compound (18e)), the present compound represented by a compound number (31e) (hereinafter, referred to as the present compound (31e)) and a corn oil which is a medium were weighed. These were mixed using a mortar and a pestle to prepare a […]. Using four 7-week old male Wistar rats [Nippon Charles River] per group, 60 μg/ml of the anti-Thy-1 antibody (IgG) or a physiological saline was intravenously injected via a tail vein at 5 ml/kg. […] A dose of the present compound was 15 mg/kg/day.
On the next day of final administration, a rat reared as described in the above (2) was slaughtered by collection of whole blood, and kidneys were isolated. A whole RNA was separated from the cortex of the isolated kidney using RNeasy Mini Kit (QIAGEN, catalogue No. 74106). To 5 μl (50 ng) of the separated whole RNA were added 1 μl of 20 μM oligo dT and 4 μl of RNase-free distilled water. After the mixture was incubated at 65° C. for 5 minutes, it was immediately ice-cooled. To 10 μl of the solution were added 4 μl of 5× buffer, 2.4 μl of MgCl2, 1 μl of 10 mM dNTP, 1 μl of RNasin, 1 μl of Improm II and 0.6 μl of RNase-free distilled water (all available from Promega), and a reverse transcription reaction was performed under the condition of at 25° C. for 5 minutes, at 42° C. for 1 hour, and at 70° C. for 15 minutes.
Into 5 μl of the reverse transcription reaction solution were mixed each 2 μl of each 1.25 pmol/μl of primers represented by SEQ ID NOS: 3 and 4, 1.25 μl of a probe (FAM-ctcgccttca tgcgcctgct agc-TAMRA) for detecting DNA of a Type I collagen gene represented by SEQ ID No:5, each 0.25 μl of Rodent GAPDH primers, 0.25 μl of a Rodent GAPDH probe, 12.5 μl of TaqMan Universal PCR Master Mix (all available from Applied Biosystem) and 1.5 μl of sterilized water in a well of Optical 96-Well Reaction Plate (Applied Biosystem, catalogue No. N801-0560). As a standard, in place of 5 μl of the reverse transcription reaction solution, each 5 μl of 500, 250, 125, 62.5, 31.25, 15.625 ng/μl rat renal cortex cDNA which had been prepared in advance was used. Thereafter, using Gene Amp 7900 (Applied Biosystem), PCR was performed under the condition of at 50° C. for 5 minutes, and 40 cycles in which one cycle is at 95° C. for 15 seconds and at 60° C. for 1 minute. […]

[2] = test system: ability of TGF-β to promote transcription of a Type I collagen gene; experiment: Inhibition of the ability of TGF-β to promote transcription of a Type I collagen gene (COL-Luc reporter gene assay); format: cell-based; settings: final concentration 1 μM; TGF-β added; normal human fetal skin fibroblast transfected with COL-Luc; 40 hours; read-out: Inhibition percentage
Experimental: 1×10^8 cells of a normal human fetal skin fibroblast (Clontech, catalogue No. CC-2509) were cultured at 37° C. overnight under 5% CO2 atmosphere. After the cultured cells were washed with a sodium phosphate buffer (hereinafter, referred to as PBS) twice, 3 ml of PBS was added thereto and the cells were scraped away the wall of a vessel using a cell scraper (Nalgen, catalogue No. 179693). The scraped cells were collected by centrifugation (1,500 rpm, 4° C., 15 min), and these were suspended in 20 ml of PBS and centrifuged again. To the resulting precipitates were added 11 ml of Solution 2 and 4.8 μl of pronase of DNA Extraction Kit (Stratagene, catalogue No. 200600). After shaken at 60° C. for 1 hour, the resulting mixture was allowed to stand in ice for 10 minutes. Then, 4 ml of Solution 3 of the kit was added to the mixture. After mixed, the mixture was allowed to stand in ice for 5 minutes and then centrifuged (3,000 rpm, 4° C., 15 min) to recover a supernatant. To the recovered supernatant was added 2 μl of RNase per 1 ml of the supernatant and the mixture was allowed to stand at 37° C. for 15 minutes. To the mixture was added 2-fold volume of ethanol. After mixed, a white thread-like substance (genomic DNA) appeared and the substance was recovered. The recovered genomic DNA was washed with 70% ethanol and then air-dried. The air-dried genomic DNA was dissolved in 500 μl of 10 mM Tris-HCl, 1 mM EDTA (pH 8.0) (hereinafter, referred to as TE).
The resulting genomic DNA solution (the amount equivalent to 1 μg of genomic DNA), each 1 μl (10 pmol/μl) of an oligonucleotide consisting of the nucleotide sequence represented by SEQ ID No:1 and an oligonucleotide consisting of the nucleotide sequence represented by SEQ ID No:2, 29 μL of distilled water, 5 μl of the buffer attached to TaKaRa LA Taq (TAKARA SHUZO, catalogue No. RR002A), 5 μL of a Mg^2+ solution, 5 μL of a dNTP mixture and 0.5 μl of TaKaRa LA Taq (TAKARA SHUZO, catalogue No. RR002A) were mixed. After the resulting mixed solution was incubated at 94° C. for 5 minutes, the mixed solution was subjected to 30 cycles, in which one cycle consists of incubation at 94° C. for 1 minute, at 60° C. for 1 minute and then at 72° C. for 1 minute. The mixed solution was electrophoresed on a 2% agarose gel to recover about 0.5 kb of a DNA. The recovered DNA was treated with phenol/chloroform and then precipitated with ethanol to recover the DNA. The resulting DNA was dissolved in ultrapure water. To this solution were added 2.5 μl of NheI and 2.5 μl of HindIII, and then incubated at 37° C. for 3 hours. Then, the solution was electrophoresed on a 2% agarose gel to recover about 3.5 kb of a DNA. The recovered DNA was precipitated with ethanol to recover again the DNA (hereinafter, referred to as the collagen promoter DNA).
On the other hand, the vector pGL3 (Promega, catalogue No. E1751) having the nucleotide sequence encoding firefly luciferase was digested with NheI and HindIII, and then subjected to agarose gel electrophoresis as described above to recover about 5 kb of a DNA. The recovered DNA was precipitated with ethanol to recover the DNA again. To the recovered DNA were added 44 μl of distilled water, 5 μl of Buffer attached to Alkaline Phosphatase (TAKARA SHUZO, catalogue No. 2120A) and 1 μl of Alkaline Phosphatase (TAKARA SHUZO, catalogue No. 2120A). The mixed solution was incubated at 65° C. for 30 minutes. Then, the mixed solution was treated with phenol/chloroform twice, and precipitated with ethanol to recover the DNA (hereinafter referred to as the Luc vector DNA). Then, after about 20 ng of the collagen promoter DNA and about 20 ng of the Luc vector DNA were mixed, the same amount of a DNA Ligation kit Ver2 enzyme solution was added and this was incubated overnight at 16° C. To the mixed solution was added Escherichia coli 5Hdα (TOYOBO, catalogue No. DNA-903), this was allowed to stand in ice for 30 minutes, and then incubated at 42° C. for 45 seconds. […]

[3] = Example 5, 15 mg/kg/day orally for 7 days in corn oil
[4] = Table 4, 15 mg/kg/day orally for 7 days in corn oil, Wistar rats, control group 5.6, normal group 1.7, test results p < 0.01
[5] = Table 3, 15 mg/kg/day orally for 7 days in corn oil, Wistar rats, control group 3.4, normal group 1.9, test results p < 0.05

SMILES | ability to improve chronic renal failure [1, 3] | mRNA of collagen gene [1, 4] | inhibition at 1 µM [2] | mRNA of collagen gene [1, 5] | ability to improve chronic renal failure ([1]; Example 6, orally for 7 days in 0.5% aqueous methylcellulose solution) | mRNA of collagen gene ([1]; Table 5 (Example 6), orally for 7 days in 0.5% aqueous methylcellulose solution, 10 Wistar rats per group, control group 2.1, normal group 1.0, test results p < 0.01)
N#CCOc1cccc(C=CC(=O)c2c(O)c3ccccc3[nH]c2=O)c1 [Compound No. (10e), 4-hydroxy-3-[3-[3-(cyanomethoxy)phenyl]-1-oxo-2-propenyl]-2(1H)-quinolinone] | have the ability to improve chronic renal failure | 2.0 | ≥ 70% |  |  | 
COCC(=O)Nc1cccc(C=CC(=O)c2c(O)c3ccccc3[nH]c2=O)c1 [Compound No. (18e), 4-hydroxy-3-[3-[3-(methoxyacetylamino)phenyl]-1-oxo-2-propenyl]-2(1H)-quinolinone] | have the ability to improve chronic renal failure | 1.9 | ≥ 70% |  |  | 
COC(=O)CNC(=O)c1cccc(C=CC(=O)c2c(O)cc(C)[nH]c2=O)c1 [Compound No. (28a), 4-hydroxy-3-[3-[3-[[(methoxycarbonylmethyl)amino]carbonyl]phenyl]-1-oxo-2-propenyl]-6-methyl-2(1H)-pyridinone] | have the ability to improve chronic renal failure |  | ≥ 70% | 2.0 |  | 
COCCNC(=O)c1ccc(C=CC(=O)c2c(O)c3ccccc3[nH]c2=O)cc1 [Compound No. (31e), 4-hydroxy-3-[3-[4-[(2-methoxyethyl)aminocarbonyl]phenyl]-1-oxo-2-propenyl]-2(1H)-quinolinone] | have the ability to improve chronic renal failure | 3.3 | ≥ 70% |  |  | 
COCCNC(=O)c1ccc(C=CC(=O)c2c(O)cc(C)[nH]c2=O)cc1 [Compound No. (33a), 4-hydroxy-3-[3-[4-[(2-methoxyethyl)aminocarbonyl]phenyl]-1-oxo-2-propenyl]-6-methyl-2(1H)-pyridinone] | have the ability to improve chronic renal failure |  |  | 2.4 |  | 
Cc1cc(O)c(C(=O)C=Cc2cccc(OCC(=O)O)c2)c(=O)n1C [Compound No. (37a), 4-hydroxy-3-[3-[3-(carboxymethoxy)phenyl]-1-oxo-2-propenyl]-1,6-dimethyl-2(1H)-pyridinone] |  |  |  |  | has the ability to improve chronic renal failure | 1.5
